“And” between values parts separate entries of the source, which are not always exact repeats. Equal entries are not always repeated.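 Exposure lasted 48 hours, with cells grown in 96-well plates and compounds tested at five concentrations. The concentration for 50% growth inhibition is given as GI50. TGI: concentration producing complete growth inhibition.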

Some test systems named below: SN12C renal; A498 renal; T-47D breast; SF-295 CNS; SK-OV-3 ovarian; NCI-H460 lung; HCC-2998 colon; RXF 393 renal; HOP-92 NSCLC; OVCAR-4 ovarian; SNB-75 CNS; KM12 colon.
What all share (assay): inhibition of tumour cell growth, NCI panel, 48 h

With `CCCCON1C[C@H](OC(C)=O)C(OC(C)=O)[C@H](OC(C)=O)C1` (some centres undefined), the TGI with SN12C renal, with A498 renal, in the experiment with T-47D breast, in the experiment on SF-295 CNS, with SK-OV-3 ovarian and with NCI-H460 lung was greater than 100 µM in each case. Moreover, the TGI in the experiment with HCC-2998 colon, in the experiment with RXF 393 renal, in the experiment on HOP-92 NSCLC, in the experiment on OVCAR-4 ovarian, in the experiment with SNB-75 CNS and in the experiment on KM12 colon was greater than 100 µM each time.

On to `O=[N+]([O-])c1ccc(C=NCC2CCCN3CCCCC23)cc1` (centres undefined), for which the TGI in the experiment with SN12C renal, with A498 renal, in the experiment on T-47D breast, in the experiment on SF-295 CNS, in the experiment on SK-OV-3 ovarian and with NCI-H460 lung was greater than 100 µM each time. Moreover, the TGI in the experiment on HCC-2998 colon, in the experiment on RXF 393 renal, in the experiment on HOP-92 NSCLC, with OVCAR-4 ovarian, in the experiment on SNB-75 CNS and with KM12 colon was greater than 100 µM throughout.

For the compound `Cc1ccc(NC(=O)CSc2nc(=O)[nH]c3nc[nH]c23)cc1`, the TGI in the experiment with SN12C renal was greater than 100 µM; in the experiment on A498 renal, 89.9 µM; in the experiment on T-47D breast it was greater than 100 µM; in the experiment with SF-295 CNS, greater than 100 µM; in the experiment on SK-OV-3 ovarian it was greater than 100 µM; in the experiment with NCI-H460 lung, greater than 100 µM. In addition, the TGI with HCC-2998 colon, in the experiment on RXF 393 renal, in the experiment on HOP-92 NSCLC, in the experiment on OVCAR-4 ovarian, in the experiment on SNB-75 CNS and in the experiment on KM12 colon was greater than 100 µM in each case.

As to `COc1ccc(C2SCC(=O)N2NC(=O)c2ccc(NC(C)=O)cc2)cc1` (centres undefined), the TGI with SN12C renal, with A498 renal, in the experiment on T-47D breast, in the experiment with SF-295 CNS, with SK-OV-3 ovarian and in the experiment on NCI-H460 lung was greater than 100 µM in each case. Besides, the TGI with HCC-2998 colon was greater than 100 µM; in the experiment on RXF 393 renal it was greater than 100 µM; with HOP-92 NSCLC, 89.2 µM; with OVCAR-4 ovarian, greater than 100 µM; in the experiment on SNB-75 CNS it was greater than 100 µM; in the experiment on KM12 colon it was greater than 100 µM.

For `CC1OC(OC2C(OC(=O)[C@]34CCC(C)(C)C[C@H]3C3=CC[C@@H]5[C@@]6(C)CC[C@H](OC7OC(C(=O)O)C(O)C(OC8OCC(O)C(O)C8O)C7O)C(C)(C)[C@@H]6CC[C@@]5(C)[C@]3(C)CC4)OCC(O)C2O)C(O)C(OC2OCC(O)C(O)C2O)C1OC1OCC(O)C(OC2OCC(O)C(O)C2O)C1O` (some centres undefined), the GI50 with SN12C renal is 2.85 µM and 8.35 µM; with T-47D breast it was 9.59 µM and 38.3 µM; in the experiment with SF-295 CNS, 5.98 µM and 15.4 µM; in the experiment on SK-OV-3 ovarian, 15.4 µM and 37.2 µM; in the experiment on NCI-H460 lung, 49.5 µM and > 100 µM; in the experiment on HOP-92 NSCLC, 6.12 µM and 13 µM. For the same compound, the GI50 in the experiment on KM12 colon is 4.39 µM and 11.3 µM. Moreover, the TGI is 7.2 µM and 21.6 µM in the experiment on SN12C renal; 4.79 µM and 8.63 µM in the experiment with A498 renal; 51.8 µM and > 100 µM in the experiment with T-47D breast; 18.9 µM and 30.2 µM in the experiment with SF-295 CNS; 33.7 µM and > 100 µM in the experiment with SK-OV-3 ovarian; greater than 100 µM with NCI-H460 lung. Further, the TGI in the experiment on HCC-2998 colon was 4.13 µM and 11.9 µM; in the experiment on RXF 393 renal, 37.5 µM and 42.9 µM; with HOP-92 NSCLC, 17.4 µM and 26.6 µM; in the experiment with OVCAR-4 ovarian it was 21.6 µM and 37.6 µM; in the experiment on SNB-75 CNS it was 29.8 µM and 39.3 µM; with KM12 colon, 15.8 µM and 23.7 µM.

`O=C(CNc1ccccc1[N+](=O)[O-])Nn1c(-c2ccccc2)nc2ccccc2c1=O`: the TGI is 63.1 µM in the experiment on SN12C renal; 81.1 µM in the experiment with A498 renal; 39.2 µM in the experiment with T-47D breast; 46.5 µM in the experiment on SF-295 CNS; greater than 100 µM in the experiment on SK-OV-3 ovarian; 45.1 µM in the experiment on NCI-H460 lung. Moreover, the TGI in the experiment with HCC-2998 colon is 26.3 µM; in the experiment with RXF 393 renal, 38.9 µM; in the experiment with HOP-92 NSCLC it was 28.3 µM; with OVCAR-4 ovarian it was 32.1 µM; in the experiment on SNB-75 CNS, 41.8 µM; in the experiment on KM12 colon, greater than 10 µM.

Turning to `CCCCCCCCCCC1OC([C@@H](O)CC[C@H](O)C2CC[C@@H](CCCCCCCC(O)CC3=CC(C)OC3=O)O2)CCC1O` (some centres undefined), the TGI in the experiment with SN12C renal, in the experiment on A498 renal, with T-47D breast, with SF-295 CNS, in the experiment with SK-OV-3 ovarian and with NCI-H460 lung was greater than 25 µM in each case. Moreover, the TGI is greater than 25 µM in the experiment on HCC-2998 colon; greater than 18.6 µM in the experiment on RXF 393 renal; greater than 25 µM in the experiment with HOP-92 NSCLC; greater than 25 µM in the experiment on OVCAR-4 ovarian; greater than 25 µM in the experiment with SNB-75 CNS; greater than 25 µM with KM12 colon. The GI50 with SF-295 CNS is 4.31 µM; with NCI-H460 lung, 5.08 µM; in the experiment on HOP-92 NSCLC, 3.03 µM; with SNB-75 CNS, 20.7 µM; in the experiment on KM12 colon, 10.3 µM.

As for `COc1ccc2cc(CN3CCC(C4CCNCC4)CC3)ccc2c1`, the TGI was determined as 23 µM in the experiment with SN12C renal; 14.7 µM with A498 renal; 5.23 µM in the experiment on T-47D breast; 3.5 µM in the experiment on SF-295 CNS; 23.4 µM in the experiment with SK-OV-3 ovarian; 4.4 µM in the experiment with NCI-H460 lung. For the same compound, the TGI is 1.41 µM with HCC-2998 colon; 5.19 µM with RXF 393 renal; 5.75 µM with HOP-92 NSCLC; 31.3 µM in the experiment on OVCAR-4 ovarian; 5.95 µM in the experiment on SNB-75 CNS; 5.25 µM with KM12 colon.

On to `COc1ccc(OC)c(NS(=O)(=O)c2ccc3nc(C)n(NS(=O)(=O)c4cc(OC)ccc4OC)c(=O)c3c2)c1`, for which the TGI in the experiment on SN12C renal, in the experiment with A498 renal, in the experiment with T-47D breast, with SF-295 CNS, in the experiment on SK-OV-3 ovarian and with NCI-H460 lung was greater than 100 µM each time. Also, the TGI in the experiment on HCC-2998 colon, with RXF 393 renal, in the experiment on HOP-92 NSCLC, in the experiment on OVCAR-4 ovarian, in the experiment with SNB-75 CNS and with KM12 colon was greater than 100 µM throughout.

As to `COc1cc2c(=O)cnoc2cc1O`, the TGI with SN12C renal, in the experiment on A498 renal, in the experiment on T-47D breast, in the experiment on SF-295 CNS, with SK-OV-3 ovarian and with NCI-H460 lung was greater than 100 µM throughout. For the same compound, the TGI in the experiment with HCC-2998 colon, with RXF 393 renal, in the experiment on HOP-92 NSCLC, in the experiment on OVCAR-4 ovarian, in the experiment with SNB-75 CNS and with KM12 colon was greater than 100 µM in each case.

Regarding `Clc1ccc(C(SCc2ccccc2)SCc2ccccc2)cc1`, the TGI with SN12C renal, in the experiment on A498 renal, in the experiment on T-47D breast, in the experiment on SF-295 CNS, with SK-OV-3 ovarian and with NCI-H460 lung was greater than 10 µM each time. Besides, the TGI with HCC-2998 colon, in the experiment on RXF 393 renal, in the experiment with HOP-92 NSCLC, with OVCAR-4 ovarian, in the experiment on SNB-75 CNS and with KM12 colon was greater than 10 µM throughout.

As for `CCOC(=O)/C(C#N)=C/c1ccnc2ccccc12`, the TGI in the experiment on SN12C renal, in the experiment with A498 renal, in the experiment with T-47D breast, in the experiment on SF-295 CNS, in the experiment on SK-OV-3 ovarian and with NCI-H460 lung was greater than 100 µM throughout. Moreover, the TGI in the experiment with HCC-2998 colon, with RXF 393 renal, with HOP-92 NSCLC, in the experiment with OVCAR-4 ovarian, with SNB-75 CNS and in the experiment on KM12 colon was greater than 100 µM each time.

`Cc1cc(S(=O)(=O)Nc2nc(N)nc(N(C)C)n2)c(SCC(=O)O)cc1Cl`: the TGI in the experiment on SN12C renal, with A498 renal, in the experiment on T-47D breast, in the experiment on SF-295 CNS, with SK-OV-3 ovarian and in the experiment on NCI-H460 lung was greater than 10 µM throughout. For the same compound, the TGI in the experiment on HCC-2998 colon, in the experiment with RXF 393 renal, in the experiment with HOP-92 NSCLC, with OVCAR-4 ovarian, in the experiment on SNB-75 CNS and in the experiment on KM12 colon was greater than 10 µM throughout.

For the compound `CCOC(=O)c1sc2[n+](c1C)C(=O)/C(=C/c1ccc([N+](=O)[O-])cc1)S2`, the TGI in the experiment with SN12C renal is greater than 100 µM; in the experiment with A498 renal, greater than 100 µM; in the experiment on T-47D breast it was 77.2 µM; in the experiment with SF-295 CNS it was 64.4 µM; in the experiment on SK-OV-3 ovarian it was 64.6 µM; with NCI-H460 lung, 45 µM. For the same compound, the TGI in the experiment on HCC-2998 colon was 37.5 µM; in the experiment with RXF 393 renal, 81.5 µM; in the experiment with HOP-92 NSCLC, greater than 100 µM; in the experiment on OVCAR-4 ovarian it was greater than 100 µM; in the experiment with SNB-75 CNS it was 49.7 µM; in the experiment on KM12 colon, 47.5 µM.

Regarding `c1c[nH]c(C23C4C5C6C4C2C6C53)n1` (centres undefined), the TGI in the experiment on SN12C renal, in the experiment with A498 renal, with T-47D breast, with SF-295 CNS, in the experiment with SK-OV-3 ovarian and in the experiment on NCI-H460 lung was greater than 100 µM each time. Also, the TGI in the experiment with HCC-2998 colon, with RXF 393 renal, in the experiment with HOP-92 NSCLC, with OVCAR-4 ovarian, in the experiment on SNB-75 CNS and with KM12 colon was greater than 100 µM each time.

With `CN(C)CCCn1nc(N)c2nc3cc(Cl)ccc3nc21`, the TGI in the experiment with SN12C renal, in the experiment on A498 renal, in the experiment on T-47D breast, in the experiment on SF-295 CNS, in the experiment on SK-OV-3 ovarian and in the experiment on NCI-H460 lung was greater than 100 µM each time. Moreover, the TGI was greater than 100 µM in the experiment with HCC-2998 colon; greater than 100 µM in the experiment on RXF 393 renal; 76.7 µM in the experiment with HOP-92 NSCLC; greater than 100 µM with OVCAR-4 ovarian; greater than 100 µM in the experiment on SNB-75 CNS; greater than 100 µM in the experiment on KM12 colon.
